According to patent publication US20230136215A1, “PRODUCTION OF DUNALIELLA” (University of Greenwich, priority 2017, published 2023):

What was measured:
[1] = system: D. salina cultures; test: D. salina cultures treated with herbicides; carotenoid contents determined by HPLC; assay type: cell-based, Dunaliella salina; conditions: for yield of phytoene, red light versus white light: herbicide-treated cultures, Table 4; for 9-cis/all-trans β-carotene ratio: norflurazon-treated; for content of phytoene per cell: continuous white LED light ~200 μmol m^−2 s^−1, 25° C.
[2] = Effect of red and blue LED light on all-trans β-carotene dissolved in chloroform; assay type: physicochemical; conditions: 2.4 μM in chloroform, 24 h, 25° C.
Protocol: FIGS. 10A-10C: Effect of red and blue LED light on all-trans β-carotene. (FIG. 10A) Red light under nitrogen; (FIG. 10B) Red light in air; (FIG. 10C) Blue light in air. All-trans-β-carotene (Sigma) was dissolved in chloroform to a final concentration of 2.4 μM and vials were thoroughly flushed with either nitrogen or air, sealed and incubated for 24 h at 25° C. under LED lights. (FIG. 10A) red, nitrogen; (FIG. 10B), red, air; (FIG. 10C) blue, nitrogen or air. The same results as (FIG. 10A) were obtained for dark under nitrogen or air. […] In (FIG. 10A) (red light under nitrogen) no reaction of β-carotene was detected.

[3] = Table 5, red light, 200 μmol m^−2 s^−1, 48 h
[4] = red light 200 pmol m^−2 s^−1 continuous, 48 h, chlorpropham 10 μM, Norflurazon 5 µM
[5] = red light 200 μmol m^−2 s^−1 continuous, 48 h, chlorpropham 10 μM, Norflurazon 5 µM
[6] = white LED light 200 pmol m^−2 s^−1 continuous, 48 h, chlorpropham 10 μM, Norflurazon 5 µM
[7] = white LED light 200 μmol m^−2 s^−1 continuous, 48 h, chlorpropham 10 μM, Norflurazon 5 µM
[8] = 20 μM chlorpropham, 6-days cultivation in white LED light
[9] = 20 μM chlorpropham, white light 1500 μmol m^−2 s^−1, 4 days' cultivation
[10] = Table 5 (red light), 1500 μmol m^−2 s^−1, 96 h
[11] = Table 5, red light, 200 μmol m^−2 s^−1, 144 h

**Q.** For `O=C(Nc1ccc(F)cc1F)c1cccnc1Oc1cccc(C(F)(F)F)c1` [Diflufenican, N-(2,4-difluorophenyl)-2-[3-(trifluoromethyl)phenoxy]pyridine-3-carboxamide], which “9-cis β-carotene” value [1, 3] is on record?
**A.** The value was 10.84 ± 0.19 pg cell^−1.

**Q.** What about the 9cis of total [1, 3] of the same compound?
**A.** The 9cis of total was 38%.

**Q.** And the “All-trans α-carotene” value [1, 3]?
**A.** The value was 0.34 ± 0.00 pg cell^−1.

**Q.** What about the “All-trans β-carotene” value [1, 3] of the same compound?
**A.** The value was 2.98 ± 0.11 pg cell^−1.

**Q.** What about the Phytoene [1, 3] of the same compound?
**A.** The Phytoene was 12.78 ± 0.40 pg cell^−1.

**Q.** And the Phytofluene [1, 3]?
**A.** The Phytofluene was 0.01 ± 0.00 pg cell^−1.

**Q.** What about the “Total carotenoids (sum)” value [1, 3] of the same compound?
**A.** Its value is 28.64 pg cell^−1.

**Q.** What about the lutein [1, 3] of the same compound?
**A.** Its lutein is 0.56 ± 0.01 pg cell^−1.

**Q.** And the “phytoene + phytofluene of total” value [1, 3]?
**A.** Its value is 45%.

**Q.** What about the zeaxanthin [1, 3] of the same compound?
**A.** The zeaxanthin was 1.13 ± 0.06 pg cell^−1.

**Q.** Which “yield of phytoene, red light versus white light” value ([1]; 48 h) does the source give for `CNc1cnn(-c2cccc(C(F)(F)F)c2)c(=O)c1Cl` [Norflurazon, 4-chloro-5-methylamino-2-(3-trifluoromethylphenyl)-pyridazin-3(2H)one] here?
**A.** The value was “more than doubled”.

**Q.** And the “amount of phytoene produced under red light compared to white light” value ([1]; norflurazon 5 and 50 μM, 200 μmol m^−2 s^−1, 25° C., 48 h)?
**A.** Its value is “significantly higher”.

**Q.** What about the “9-cis/all-trans β-carotene ratio” value ([1]; red LED light 200 μmol m^−2 s^−1, 25° C., 48 h) of the same compound?
**A.** Its value is 3.9.

**Q.** And the “9-cis/all-trans β-carotene ratio” value ([1]; white LED light 200 μmol m^−2 s^−1, 25° C., 48 h)?
**A.** Its value is 1.8.

**Q.** What about the “9-cis β-carotene” value [1, 4] of the same compound?
**A.** The value was 11.89 ± 0.83 pg cell^−1.

**Q.** And the zeaxanthin [1, 4]?
**A.** The zeaxanthin was 1.12 ± 0.06 pg cell^−1.

**Q.** And the 9cis of total [1, 5]?
**A.** The 9cis of total was 38%.

**Q.** What about the Phytoene [1, 5] of the same compound?
**A.** Its Phytoene is 14.42 ± 0.95 pg cell^−1.

**Q.** And the Phytofluene [1, 5]?
**A.** Its Phytofluene is 0.02 ± 0.00 pg cell^−1.

**Q.** And the “Total carotenoids (sum)” value [1, 5]?
**A.** Its value is 31.55 pg cell^−1.

**Q.** What about the lutein [1, 5] of the same compound?
**A.** The lutein was 0.62 ± 0.02 pg cell^−1.

**Q.** What about the “phytoene + phytofluene of total” value [1, 5] of the same compound?
**A.** The value was 46%.

**Q.** And the “9-cis β-carotene” value [1, 6]?
**A.** Its value is 7.65 ± 0.67 pg cell^−1.

**Q.** And the zeaxanthin [1, 6]?
**A.** Its zeaxanthin is 0.80 ± 0.07 pg cell^−1.

**Q.** What about the 9cis of total [1, 7] of the same compound?
**A.** Its 9cis of total is 37%.

**Q.** And the Phytoene [1, 7]?
**A.** The Phytoene was 7.07 ± 0.36 pg cell^−1.

**Q.** And the Phytofluene [1, 7]?
**A.** Its Phytofluene is 0.01 ± 0.00 pg cell^−1.

**Q.** And the “Total carotenoids (sum)” value [1, 7]?
**A.** The value was 20.6 pg cell^−1.

**Q.** What about the lutein [1, 7] of the same compound?
**A.** The lutein was 0.52 ± 0.02 pg cell^−1.

**Q.** And the “phytoene + phytofluene of total” value [1, 7]?
**A.** The value was 34%.

**Q.** Which results are given for `CC1=C(/C=C/C(C)=C/C=C/C(C)=C/C=C/C=C(C)/C=C/C=C(C)/C=C/C2=C(C)CCCC2(C)C)C(C)(C)CCC1` [all-trans β-carotene, all-trans-β-carotene]?
**A.** destruction of all-trans β-carotene ([2]; blue light, nitrogen or air): fully destroyed; destruction of all-trans β-carotene ([2]; red light under air): 40%; reaction of β-carotene ([2]; red light under nitrogen): no reaction

**Q.** With `Nc1cc(Cl)nc(C(=O)O)c1Cl` [aminopyralid, 4-amino-3,6-dichloropyridine-2-carboxylic acid] as the compound, how does the “content of phytoene per cell” value [1] read?
**A.** Its value is “increased”.

**Q.** With `CCNC(=O)[C@@H](C)OC(=O)Nc1ccccc1` [carbetamide, (R)-1-(ethylcarbamoyl)ethyl carbanilate] as the compound, how does the “content of phytoene per cell” value [1] read?
**A.** Its value is “increased”.

**Q.** For `CC(C)OC(=O)Nc1cccc(Cl)c1` [chlorpropham, isopropyl N-(3-chlorophenyl) carbamate], which “final phytoene concentration in the cultures” value [1, 8] is on record?
**A.** The value was 3.55 ± 0.11 mg/L.

**Q.** What about the “phytoene content in cells” value [1, 8] of the same compound?
**A.** Its value is 25.76±1.58 pg cell^−1.

**Q.** And the “increase of phytoene content in cells” value ([1]; 20 μM chlorpropham, 6-days cultivation in white LED light, compared to untreated cells)?
**A.** Its value is “ca. 50 fold”.

**Q.** And the “increase of final phytoene concentration in the cultures” value ([1]; 20 μM chlorpropham, 6-days cultivation in white LED light, compared to untreated cultures)?
**A.** The value was 10 fold.

**Q.** And the phytoene content [1, 9]?
**A.** Its phytoene content is “above 30 pg cell^−1”.

**Q.** What about the phytoene yield [1, 9] of the same compound?
**A.** Its phytoene yield is 8.2 mg/L.

**Q.** What about the “9-cis β-carotene” value [1, 10] of the same compound?
**A.** The value was 6.96 ± 0.74 pg cell^−1.

**Q.** What about the 9cis of total [1, 10] of the same compound?
**A.** Its 9cis of total is 12%.

**Q.** What about the “All-trans α-carotene” value [1, 10] of the same compound?
**A.** The value was 0.44 ± 0.07 pg cell^−1.

**Q.** And the “All-trans β-carotene” value [1, 10]?
**A.** The value was 17.34 ± 0.97 pg cell^−1.

**Q.** And the Phytoene [1, 10]?
**A.** The Phytoene was 30.62 ± 1.31 pg cell^−1.

**Q.** What about the Phytofluene [1, 10] of the same compound?
**A.** The Phytofluene was 1.87 ± 0.12 pg cell^−1.

**Q.** What about the “Total carotenoids (sum)” value [1, 10] of the same compound?
**A.** The value was 58.61 pg cell^−1.

**Q.** What about the lutein [1, 10] of the same compound?
**A.** The lutein was 0.61 ± 0.03 pg cell^−1.

**Q.** What about the “phytoene + phytofluene of total” value [1, 10] of the same compound?
**A.** The value was 55%.

**Q.** What about the zeaxanthin [1, 10] of the same compound?
**A.** Its zeaxanthin is 0.77 ± 0.02 pg cell^−1.

**Q.** What about the “9-cis β-carotene” value [1, 11] of the same compound?
**A.** Its value is 31.3 ± 2.49 pg cell^−1.

**Q.** And the 9cis of total [1, 11]?
**A.** Its 9cis of total is 29%.

**Q.** And the “All-trans α-carotene” value [1, 11]?
**A.** Its value is 1.4 ± 0.13 pg cell^−1.

**Q.** And the “All-trans β-carotene” value [1, 11]?
**A.** Its value is 18.34 ± 1.45 pg cell^−1.

**Q.** And the Phytoene [1, 11]?
**A.** Its Phytoene is 51.88 ± 4.53 pg cell^−1.

**Q.** And the Phytofluene [1, 11]?
**A.** Its Phytofluene is 3.02 ± 0.29 pg cell^−1.

**Q.** And the “Total carotenoids (sum)” value [1, 11]?
**A.** The value was 108.48 pg cell^−1.

**Q.** And the lutein [1, 11]?
**A.** The lutein was 1.21 ± 0.09 pg cell^−1.

**Q.** What about the “phytoene + phytofluene of total” value [1, 11] of the same compound?
**A.** Its value is 51%.

**Q.** What about the zeaxanthin [1, 11] of the same compound?
**A.** The zeaxanthin was 1.33 ± 0.10 pg cell^−1.

**Q.** And the “increase of cellular content of colorless carotenoids” value ([1]; compared to untreated cultures)?
**A.** Its value is “more than 30 fold”.

**Q.** And the “increase of yield of the colorless carotenoids” value ([1]; compared to untreated cultures)?
**A.** The value was “more than 10 fold”.

**Q.** What about the “yield of phytoene, red light versus white light” value ([1]; 48 h) of the same compound?
**A.** The value was “more than doubled”.

**Q.** What about the Cell density ([1]; once chlorpropham was added) of the same compound?
**A.** Its Cell density is “stopped increasing”.

**Q.** What about the “9-cis β-carotene” value [1, 4] of the same compound?
**A.** The value was 14.35 ± 1.24 pg cell^−1.

**Q.** And the zeaxanthin [1, 4]?
**A.** The zeaxanthin was 1.05 ± 0.06 pg cell^−1.

**Q.** What about the 9cis of total [1, 5] of the same compound?
**A.** The 9cis of total was 39%.

**Q.** And the Phytoene [1, 5]?
**A.** The Phytoene was 10.56 ± 1.53 pg cell^−1.

**Q.** What about the Phytofluene [1, 5] of the same compound?
**A.** Its Phytofluene is 1.58 ± 0.17 pg cell^−1.

**Q.** What about the “Total carotenoids (sum)” value [1, 5] of the same compound?
**A.** Its value is 36.7 pg cell^−1.

**Q.** And the lutein [1, 5]?
**A.** The lutein was 0.74 ± 0.05 pg cell^−1.

**Q.** What about the “phytoene + phytofluene of total” value [1, 5] of the same compound?
**A.** The value was 33%.

**Q.** And the “phytoene contents under red light versus white light” value ([1]; same concentration of chlorpropham treatment)?
**A.** The value was “higher”.

**Q.** What about the “optimal concentration range of chlorpropham added to the cultures (phytoene production)” value ([1]; tested 0, 0.1, 1, 10, 20, 50 and 100 μM, 25° C.) of the same compound?
**A.** Its value is 10 to 50 µM.

**Q.** What about the “9-cis β-carotene” value [1, 6] of the same compound?
**A.** The value was 13.35 ± 1.88 pg cell^−1.

**Q.** And the zeaxanthin [1, 6]?
**A.** The zeaxanthin was 0.84 ± 0.09 pg cell^−1.

**Q.** And the 9cis of total [1, 7]?
**A.** Its 9cis of total is 43%.

**Q.** And the Phytoene [1, 7]?
**A.** The Phytoene was 4.41 ± 0.65 pg cell^−1.

**Q.** And the Phytofluene [1, 7]?
**A.** The Phytofluene was 0.67 ± 0.09 pg cell^−1.

**Q.** And the “Total carotenoids (sum)” value [1, 7]?
**A.** The value was 30.99 pg cell^−1.

**Q.** And the lutein [1, 7]?
**A.** The lutein was 0.83 ± 0.13 pg cell^−1.

**Q.** And the “phytoene + phytofluene of total” value [1, 7]?
**A.** The value was 16%.

**Q.** Which “content of phytoene per cell” value [1] does the source give for `COc1nc(C)nc(NC(=O)NS(=O)(=O)c2ccccc2Cl)n1` [chlorsulfuron, 1-(2-chlorophenyl)sulfonyl-3-(4-methoxy-6-methyl-1,3,5-triazin-2-yl)urea] here?
**A.** The value was “increased”.

**Q.** Which “content of phytoene per cell” value [1] does the source give for `O=C(O)CNCP(=O)(O)O` [glyphosate, 2-(phosphonomethylamino)acetic acid] here?
**A.** The value was “increased”.
